Laboratory results taken from ChEMBL document CHEMBL1201862, “PubChem BioAssay data set” (2004).
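Where inhibition never reached the appropriate level, the endpoint shown equals the highest concentration tested. Otherwise, values were interpolated linearly from a five-concentration, 48-hour dose response in 96-well plates. GI50: concentration for 50% inhibition of growth.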 Activity calls are given as the source filed them. No stated cut-off is given here; in the data, active = GI50 up to about 1.1 µM and inactive = higher.

Columns and labels:
Assay in all cases: growth of human tumour cells (NCI), 48 h
[1] = tested on: M14
[2] = tested on: HL-60
[3] = tested on: RPMI-8226
[4] = tested on: SW-620
[5] = tested on: UACC-257
[6] = tested on: Malme-3M
[7] = tested on: HOP-62
[8] = tested on: LXFL 529
[9] = tested on: NCI-H460
[10] = tested on: SK-MEL-28
[11] = tested on: NCI-H226
[12] = tested on: K562
[13] = tested on: LOX IMVI
[14] = tested on: COLO 205
[15] = tested on: EKVX
[16] = tested on: RXF 393
[17] = tested on: Hs-578T
[18] = tested on: DU-145
[19] = tested on: MDA-N
[20] = tested on: MDA-MB-231

Row | Compound | GI50 [1] | GI50 [2] | GI50 [3] | GI50 [4] | GI50 [5] | GI50 [6] | GI50 [7] | GI50 [8] | GI50 [9] | GI50 [10] | GI50 [11] | GI50 [12] | GI50 [13] | GI50 [14] | GI50 [15] | GI50 [16] | GI50 [17] | GI50 [18] | GI50 [19] | GI50 [20]
1 | CCN(CC)CCCCC1CCN(CC(=O)N2c3cc(Cl)ccc3NC(=O)CC2C)CC1 (configuration not stated) | > 100 µM (inactive) | > 100 µM (inactive) | > 100 µM (inactive) | > 100 µM (inactive) | > 100 µM (inactive) | > 100 µM (inactive) | > 100 µM (inactive) | > 100 µM (inactive) | > 100 µM (inactive) | > 100 µM (inactive) | > 100 µM (inactive) | 79.6 µM (inactive) | > 100 µM (inactive) | > 100 µM (inactive) |  |  |  |  |  | 
2 | Cc1c(Cl)c(C)c(Cl)c(O)c1Cl | 20.5 µM (inactive) | 18.7 µM (inactive) | 17.3 µM (inactive) | 34.3 µM (inactive) | 22.1 µM (inactive) | 15.2 µM (inactive) | 31.9 µM (inactive) |  | 24.7 µM (inactive) | 38.4 µM (inactive) | 15.1 µM (inactive) | 17.5 µM (inactive) | 26.2 µM (inactive) | 60 µM (inactive) | 26.4 µM (inactive) | 26 µM (inactive) | 19.9 µM (inactive) | 37 µM (inactive) | 24.6 µM (inactive) | 27 µM (inactive)
3 | CO[C@H]1C[C@H](O[C@H]2CC[C@]3(C=O)[C@H]4CC[C@]5(C)[C@@H](C6=CC(=O)OC6)CC[C@]5(O)[C@@H]4CC[C@]3(O)C2)O[C@H](C)[C@H]1O [CYMARIN] | 0.528 µM (active) | 0.118 µM (active) | 0.27 µM (active) | 0.243 µM (active) | 0.37 µM (active) | 0.225 µM (active) | 0.114 µM (active) |  | 0.112 µM (active) | 0.845 µM (active) | 0.54 µM (active) | 0.184 µM (active) | 0.184 µM (active) | 0.618 µM (active) | 0.175 µM (active) | 0.0467 µM (active) | 0.525 µM (active) | 0.115 µM (active) | 0.136 µM (active) | 1.14 µM (inactive)
4 | C1=C(c2ccccc2)C(N2CCOCC2)Oc2ccccc21 (configuration not stated) | > 100 µM (inactive) | 42.7 µM (inactive) | 96.4 µM (inactive) | > 100 µM (inactive) | > 100 µM (inactive) | > 100 µM (inactive) | > 100 µM (inactive) |  | > 100 µM (inactive) | > 100 µM (inactive) | > 100 µM (inactive) | 91.8 µM (inactive) | > 100 µM (inactive) | > 100 µM (inactive) | > 100 µM (inactive) | > 100 µM (inactive) | > 100 µM (inactive) | > 100 µM (inactive) | 92.5 µM (inactive) | > 100 µM (inactive)
5 | O=C(O)CCC1COc2ccccc2O1 (configuration not stated) | > 10 µM (inactive) | > 10 µM (inactive) | > 10 µM (inactive) | > 10 µM (inactive) | > 10 µM (inactive) | > 10 µM (inactive) | > 10 µM (inactive) |  | > 10 µM (inactive) | > 10 µM (inactive) | > 10 µM (inactive) | > 10 µM (inactive) | > 10 µM (inactive) | > 10 µM (inactive) | > 10 µM (inactive) | > 10 µM (inactive) | > 10 µM (inactive) | > 10 µM (inactive) | > 10 µM (inactive) | > 10 µM (inactive)
6 | Cc1cc(C)nc(NS(=O)(=O)c2ccc(Nc3c4ccccc4nc4ccc(C(=O)Nc5ccc(S(=O)(=O)N=C(N)N)cc5)cc34)cc2)n1 | > 100 µM (inactive) | 34.3 µM (inactive) | 35.7 µM (inactive) | 48.4 µM (inactive) | 72.3 µM (inactive) | 30.7 µM (inactive) | > 100 µM (inactive) |  | 36 µM (inactive) | > 100 µM (inactive) | > 100 µM (inactive) | 25.2 µM (inactive) | 17 µM (inactive) | > 100 µM (inactive) | > 100 µM (inactive) | 50.8 µM (inactive) | > 100 µM (inactive) | > 100 µM (inactive) | > 100 µM (inactive) | 81.8 µM (inactive)
7 | COc1cccc2c(=O)c3c(n(C)c12)OC(C(C)C)C3 (configuration not stated) | > 100 µM (inactive) | 69.7 µM (inactive) | 46.7 µM (inactive) | > 100 µM (inactive) | > 100 µM (inactive) | > 100 µM (inactive) | > 100 µM (inactive) |  | 52.1 µM (inactive) | > 100 µM (inactive) | 83.2 µM (inactive) | 27.5 µM (inactive) | > 100 µM (inactive) | 74 µM (inactive) | 89.5 µM (inactive) | > 100 µM (inactive) | > 100 µM (inactive) | > 100 µM (inactive) | > 100 µM (inactive) | > 100 µM (inactive)
8 | O=C1NC(=S)NC(=O)C1=C(O)Nc1ccccc1 | 36.2 µM (inactive) | 28.1 µM (inactive) | 27.4 µM (inactive) | 29.2 µM (inactive) | 38.1 µM (inactive) | 25.8 µM (inactive) | 23.2 µM (inactive) |  | 22.7 µM (inactive) | 47.9 µM (inactive) | 30.5 µM (inactive) | 27.7 µM (inactive) | 23.3 µM (inactive) | 27.4 µM (inactive) | 35.7 µM (inactive) | 33.2 µM (inactive) | 20.2 µM (inactive) | 30.5 µM (inactive) | 30 µM (inactive) | 31.8 µM (inactive)
